Measurements taken from publication PMC3344907, “Inhibitory Effects and Underlying Mechanism of 7-Hydroxyflavone Phosphate Ester in HeLa Cells” (PLoS ONE, 2012).

How the values were obtained:
[1] = target: T1, CaM-activated PDE1 (Ca2+-CaM-phosphodiesterase 1); test: PDE-Glo luminescence assay of CaM-activated PDE; supported by fluorescence quenching of the CaM-Ca2+-PDE system; format: biochemical, Bos taurus
T1 construct: bovine brain PDE (Sigma-Aldrich P9529); with calmodulin (CaM)

[2] = target: T1, CaM-activated PDE1 (Ca2+-CaM-phosphodiesterase 1); test: PDE-Glo luminescence assay of CaM-activated PDE; format: biochemical, Bos taurus

Row | SMILES | IC50 [1] | IC50 [2]
1 | CCOP(=O)(OCC)Oc1ccc2c(=O)cc(-c3ccccc3)oc2c1 [FP, diethyl flavon-7-yl phosphate] | 22.3 µM | 
2 | O=c1cc(-c2ccccc2)oc2cc(O)ccc12 [HF, 7-hydroxyflavone] |  | 76.7 µM
